Experimental findings from patent EP2272817A1, “PAI-1 INHIBITOR” (Institute of Medicinal Molecular Design, Inc., priority 2008, dated 2009) are described below.

The test addresses recombinant human PAI-1 (Homo sapiens, UniProt P05121). The test is described as follows: Test Example 2: Human PAI-1 Inhibitory Activity (pH 7.4 HEPES buffer, 10 minutes incubation with two-chain tPA). In kind it is biochemical. More on the design: purchased Molecular Innovations, Inc. Conditions: read-out: Inhibition Rate of PAI-1 Activity (%). The procedure:
0.1 M HEPES, 0.1 M NaCl. 1 mM EDTA. 0.1 % Polyethylene glycol 8,000 (Hampton Research Corporation),
2 mM Dimethyldecylphoshine oxide [Apo-10] (Fluka Corporation)

As usually defined, the inhibition is the change of the read-out against control, counted positive when it falls.

SMILES strings stand for the structures.

recombinant human PAI-1, sequence (P05121 24-402): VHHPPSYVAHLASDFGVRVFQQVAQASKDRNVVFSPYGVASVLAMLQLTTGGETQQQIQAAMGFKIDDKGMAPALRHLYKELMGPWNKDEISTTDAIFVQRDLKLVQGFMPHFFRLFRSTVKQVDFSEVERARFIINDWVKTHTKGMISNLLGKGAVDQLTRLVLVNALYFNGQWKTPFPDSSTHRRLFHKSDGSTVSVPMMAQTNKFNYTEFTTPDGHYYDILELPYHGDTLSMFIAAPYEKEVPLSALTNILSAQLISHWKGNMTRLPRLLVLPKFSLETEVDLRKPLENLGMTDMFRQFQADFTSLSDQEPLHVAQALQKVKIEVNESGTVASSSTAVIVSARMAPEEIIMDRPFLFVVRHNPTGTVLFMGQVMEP

Turning to `CCCCC(Oc1cc(Oc2ccc(C(C)(C)C)cc2)cc(-c2ccc(OC(F)(F)F)cc2)c1)C(=O)O` (centres unmarked) [Compound 426], the inhibition at 0.1 µM was 10%, the inhibition at 0.3 µM is 29%, the inhibition at 1 µM turned out to be 95% and the inhibition at 3 µM stood at 97%.
For `CC(C)(C)c1ccc(Oc2cc(OCC(=O)O)cc(-c3ccc(OC(F)(F)F)cc3)c2)cc1` [Compound 427] the same measures were 1%, 27%, 62% and 97%.
For `CCCCN(CC(=O)O)c1cc(-c2ccc(OC(F)(F)F)cc2)ccc1Oc1ccc(C(C)(C)C)cc1` [Compound 428], in that order: 18%, 36%, 92% and 94%.
As for `CCCCCCOc1ccc(-c2ccc(OC(F)(F)F)cc2)cc1OC(CCCCCC)C(=O)O` (centres unmarked) [Compound 429], the inhibition at 0.1 µM turned out to be 7%, the inhibition at 0.3 µM was 9%, the inhibition at 1 µM is 93% and the inhibition at 3 µM is 95%.
For `CCCCCCOc1cc(-c2ccc(OC(F)(F)F)cc2)ccc1OC(CCCCCC)C(=O)O` (centres unmarked) [Compound 430] the same measures were 1%, 15%, 97% and more than 99%.
Consider `CC(C)(C)c1ccc(Oc2ccc(Nc3ccc(OC(F)(F)F)cc3)cc2/C=C/C(=O)O)cc1` [Compound 431], for which the inhibition at 0.1 µM was found to be 0%, the inhibition at 0.3 µM is 0%, the inhibition at 1 µM is 77% and the inhibition at 3 µM is more than 99%.
As to `CC(C)(C)c1ccc(Oc2ccc(Nc3ccc(OC(F)(F)F)cc3)cc2CCC(=O)O)cc1` [Compound 432], the inhibition at 0.1 µM is 4%, the inhibition at 0.3 µM was determined as 0%, the inhibition at 1 µM turned out to be 25% and the inhibition at 3 µM came to 97%.
For `CCCCN(CC(=O)O)c1cc(-c2ccc(OC(F)(F)F)cc2)ccc1OCCCCc1ccccc1` [Compound 433] the same measures were 13%, 6%, 41% and 98%.
With `CC(C)(C)c1ccc(Oc2cc(-c3ccc(OC(F)(F)F)cc3)ccc2C(=O)O)cc1` [Compound 434], the inhibition at 0.1 µM turned out to be 14%, the inhibition at 0.3 µM is 8%, the inhibition at 1 µM turned out to be 66% and the inhibition at 3 µM was more than 99%.
On to `CCCN(CC(=O)O)c1cc(-c2ccc(OC(F)(F)F)cc2)ccc1Oc1ccc(C(C)(C)C)cc1` [Compound 435], for which the inhibition at 0.1 µM turned out to be 12%, the inhibition at 0.3 µM was determined as 29%, the inhibition at 1 µM came to 81% and the inhibition at 3 µM came to 98%.
Take `CC(C)(C)c1cccc(Oc2cc(-c3ccc(OC(F)(F)F)cc3)ccc2OCC(=O)O)c1` [Compound 436]: the inhibition at 0.1 µM amounted to 3%, the inhibition at 0.3 µM was determined as 19%, the inhibition at 1 µM worked out at 63% and the inhibition at 3 µM is more than 99%.
For `CC(C)(C)c1cccc(Oc2ccc(-c3ccc(OC(F)(F)F)cc3)cc2/C=C/C(=O)O)c1` [Compound 437], in that order: 0%, 12%, 67% and 98%.
For `CC(C)(C)c1cccc(Oc2ccc(-c3ccc(OC(F)(F)F)cc3)cc2CCC(=O)O)c1` [Compound 438], in that order: 13%, 11%, 50% and more than 99%.
For `CC(C)(C)c1cccc(Oc2ccc(-c3ccc(OC(F)(F)F)cc3)cc2OCC(=O)O)c1` [Compound 439], in that order: 12%, 9%, 44% and more than 99%.
Regarding `CCCCCOc1ccc(-c2ccc(OCC(=O)O)c(Oc3ccc(C(C)(C)C)cc3)c2)cc1` [Compound 440], the inhibition at 0.1 µM was found to be 0%, the inhibition at 0.3 µM is 3%, the inhibition at 1 µM turned out to be 96% and the inhibition at 3 µM was more than 99%.
As to `CC(C)c1ccc(-c2ccc(OCC(=O)O)c(Oc3ccc(C(C)(C)C)cc3)c2)cc1` [Compound 441], the inhibition at 0.1 µM is 9%, the inhibition at 0.3 µM is 29%, the inhibition at 1 µM was 89% and the inhibition at 3 µM stood at 98%.
For `CC(C)(C)c1ccc(Oc2cc(-c3ccc(OC(F)(F)F)cc3)ccc2NCC(=O)O)cc1` [Compound 442] the same measures were 1%, 4%, 83% and more than 99%.
For `CCCCc1ccc(-c2ccc(OCC(=O)O)c(Oc3ccc(C(C)(C)C)cc3)c2)cc1` [Compound 443], in that order: 7%, 8%, 76% and more than 99%.
For `Cc1ccc(-c2ccc(OCC(=O)O)c(Oc3ccc(C(C)(C)C)cc3)c2)cc1` [Compound 444] the same measures were 0%, 0%, 11% and 96%.
Turning to `COc1ccc(-c2ccc(OCC(=O)O)c(Oc3ccc(C(C)(C)C)cc3)c2)cc1` [Compound 445], the inhibition at 0.1 µM stood at 0%, the inhibition at 0.3 µM was found to be 1%, the inhibition at 1 µM is 12% and the inhibition at 3 µM came out at 50%.
For `CC(C)(C)c1ccc(Oc2cc(-c3ccc(C(C)(C)C)cc3)ccc2OCC(=O)O)cc1` [Compound 446], in that order: 3%, 13%, 84% and more than 99%.
As for `CCC(CC)Oc1ccc(-c2ccc(OCC(=O)O)c(Oc3ccc(C(C)(C)C)cc3)c2)cc1` [Compound 447], the inhibition at 0.1 µM was 4%, the inhibition at 0.3 µM is 11%, the inhibition at 1 µM was found to be 89% and the inhibition at 3 µM was more than 99%.
For `CSc1ccc(-c2ccc(OCC(=O)O)c(Oc3ccc(C(C)(C)C)cc3)c2)cc1` [Compound 448], in that order: 4%, 11%, 39% and more than 99%.
For `CC(C)(C)c1ccc(Oc2cc(-c3ccc(OC(F)(F)F)cc3)ccc2/C=C\C(=O)O)cc1` [Compound 450] the same measures were 9%, 11%, 58% and 98%.
With `CC(C)(C)c1ccc(Oc2ccc(-c3ccc(C(C)(C)C)cc3)cc2OCC(=O)O)cc1` [Compound 453], the inhibition at 0.1 µM turned out to be 4%, the inhibition at 0.3 µM was determined as 15%, the inhibition at 1 µM was 96% and the inhibition at 3 µM was more than 99%.
Take `CCCCCOc1ccc(-c2ccc(Oc3ccc(C(C)(C)C)cc3)c(OCC(=O)O)c2)cc1` [Compound 454]: the inhibition at 0.1 µM was 11%, the inhibition at 0.3 µM came to 17%, the inhibition at 1 µM was more than 99% and the inhibition at 3 µM was more than 99%.
